Measurements as given in article PMC7956620 (Molecules, 2021).
Where a chain is given by its changes, count along the chain named.

What was measured:
[1] = biological target: T1, 5-HT3A receptor I71A mutant (Homo sapiens, UniProt P46098, I66A); assay: two-electrode voltage clamp, I71A mutant receptor in Xenopus oocytes; format: cell-based; details: 100 µM chanoclavine, read-out: Inhibition Percentage (%)
T1 construct: host or cells: Xenopus laevis oocytes injected with in vitro transcribed mRNA
T1 sequence (P46098 24-478 I66A): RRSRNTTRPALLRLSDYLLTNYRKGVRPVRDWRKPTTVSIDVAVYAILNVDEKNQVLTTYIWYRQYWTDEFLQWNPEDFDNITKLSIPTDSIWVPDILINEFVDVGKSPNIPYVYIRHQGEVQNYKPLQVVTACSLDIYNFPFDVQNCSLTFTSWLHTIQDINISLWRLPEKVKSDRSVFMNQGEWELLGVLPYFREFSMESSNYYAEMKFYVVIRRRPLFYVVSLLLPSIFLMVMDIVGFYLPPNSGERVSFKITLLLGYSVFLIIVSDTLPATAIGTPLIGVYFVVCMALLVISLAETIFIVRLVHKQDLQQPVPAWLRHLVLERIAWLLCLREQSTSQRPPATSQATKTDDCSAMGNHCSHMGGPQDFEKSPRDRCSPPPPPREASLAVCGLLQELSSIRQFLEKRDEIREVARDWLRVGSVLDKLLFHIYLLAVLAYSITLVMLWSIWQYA
Experimental: (§1) The site-directed mutation of one or two amino acids was performed using sense and antisense primers and Pfu polymerase (QuickChange Site-Directed Mutagenesis Kit; Agilent, Santa Clara, CA, USA) and amplified by polymerase chain reaction (PCR) to increase the target domain. After removing the existing methylated cDNA using Dpn Ⅰ, the PCR products were transformed into Escherichia coli strain DH5α. The cDNA of the 5-HT3A receptor was linearized by Xho Ⅰ at the end of the multi-cloning site, followed by transcription using T7 polymerase and a transcription kit (mMESSAGE mMACHINE T7 Transcription Kit; Thermo Fisher Scientific, Waltham, MA, USA). […]
(§2) To isolate oocytes, female Xenopus laevis were put into a container filled with ice and left for about one hour. […] When the Xenopus oocytes were ready for injection, 50 ng of mRNA was injected with a nanoliter injector (Drummond Scientific, Vernon Hills, IL, USA). […]
(§3) The oocytes in which mRNA was expressed during the incubation period allowed for the estimation of channel or receptor properties for observing drug and ligand potential interactions using a two-electrode voltage clamp (OC-725C; Warner Instruments, Hamden, CT, USA) and Digidata (1322A; Molecular Devices, Sunnyvale, CA, USA). […] The voltage and current electrodes were filled with 3 M KCl (0.3–0.7 MΩ) and analyzed at a −80 mV holding potential. […]

[2] = biological target: T2, 5-HT3A receptor Y91A mutant (Homo sapiens, UniProt P46098, Y86A); assay: two-electrode voltage clamp, Y91A mutant receptor in Xenopus oocytes; format: cell-based; details: 100 µM chanoclavine, read-out: Inhibition Percentage (%)
T2 construct: host or cells: Xenopus laevis oocytes injected with in vitro transcribed mRNA
T2 sequence (P46098 24-478 Y86A): T1 sequence (P46098 24-478 I66A) with A43I, Y63A
Experimental: as §1, §2, §3

[3] = biological target: T3, 5-HT3A receptor V133A mutant (Homo sapiens, UniProt P46098, V128A); assay: two-electrode voltage clamp, V133A mutant receptor in Xenopus oocytes; format: cell-based; details: 100 µM chanoclavine, read-out: Inhibition Percentage (%)
T3 construct: host or cells: Xenopus laevis oocytes injected with in vitro transcribed mRNA
T3 sequence (P46098 24-478 V128A): T1 sequence (P46098 24-478 I66A) with A43I, V105A
Experimental: as §1, §2, §3

[4] = tested on: 5-HT3A receptor I228A mutant; assay: two-electrode voltage clamp, I228A mutant receptor in Xenopus oocytes; format: cell-based, human; details: 100 µM chanoclavine
Experimental: as §1, §2, §3

Q: With `CN[C@@H]1Cc2c[nH]c3cccc(c23)[C@H]1/C=C(\C)CO` [chanoclavine] as the compound, how does the inhibition at 100 µM [1] read?
A: 62.7 ± 3.1%

Q: And the inhibition at 100 µM [2]?
A: 50.2 ± 5.1%

Q: What about the inhibition at 100 µM [3] of the same compound?
A: 67.2 ± 9.9%

Q: What about the “Inhibition Percentage (%)” value [4] of the same compound?
A: 66.16 ± 9.2%
